In patent US6869930B1, “Acylated insulin” (priority 1993, dated 2005):

Legend:
[1] = Lipophilicity relative to human insulin, k′rel, by isocratic RP-HPLC (LiChrosorb RP18); type: physicochemical; settings: pH 7.3
Protocol: The elution was monitored by following the UV absorption of the eluate at 214 nm. Void time, t0, was found by injecting 0.1 mM sodium nitrate.

rabbits = assay: Single day retardation test: prolongation of the blood glucose lowering effect in rabbits; type: in vivo
Protocol: The degree of prolongation of the blood glucose lowering effect was studied in rabbits. Each insulin derivative was tested by subcutaneous injection of 12 nmol thereof in, each of six rabbits in the single day retardation test. Blood sampling for glucose analysis was performed before injection and at 1, 2, 4 and 6 hours after injection. The glucose values found are expressed as percent of initial values.

For “Lys^B29(N^ε-[N^α-tetradecanoyl-γ-carboxy-Glu-]) des(B30) Human Insulin [Example 43]”, the “lipophilicity relative to human insulin, k′rel” value [1] was 10.
In the case of “N^εB29-lithocholoyl insulin [N^εB29-lithocholoyl insulin (Zn-free)]”, the “Relative Lipophilicity” value [1] is reported as 51.6, the “Blood glucose, % of initial 1 h” value (rabbits; 12 nmol subcutaneous, 1 h after injection, 3 Zn^2+/insulin hexamer except where Zn-free) is reported as 98.3 % of initial and the “Blood glucose, % of initial 2 h” value (rabbits; 12 nmol subcutaneous, 2 h after injection, 3 Zn^2+/insulin hexamer except where Zn-free) is reported as 92.3 % of initial. The “Blood glucose, % of initial 4 h” value (rabbits; 12 nmol subcutaneous, 4 h after injection, 3 Zn^2+/insulin hexamer except where Zn-free) was 100.5 % of initial, the “Blood glucose, % of initial 6 h” value (rabbits; 12 nmol subcutaneous, 6 h after injection, 3 Zn^2+/insulin hexamer except where Zn-free) was 93.4 % of initial and the Index of protraction (rabbits; calculated from blood glucose values, scaled: 100 = bovine ultralente insulin, 0 = Actrapid insulin) was 115.
For “Lys^B29(N^ε-[N^α-tetradecanoyl Aad(−)-OH]) des(B30) Human Insulin [Example 42]”, the “lipophilicity relative to human insulin, k′rel” value [1] was 21.
